Source: patent EP0233173A1, “1-[3-(2-Hydroxy-3-alkylamino-propoxy)-2-thienyl]-3-phenyl-1-propanones and their acid addition salts, process for their preparation and pharmaceutical compositions containing them” (Laevosan-Gesellschaft m.b.H., priority 1986, dated 1987)

Tests used:
[1] = system: isolierte linke Meerschweinchenvorhof; experiment: Isolated, electrically stimulated left guinea pig atrium: refractory period, contraction force and excitability; format: cell-based, Meerschweinchen; settings: for Hemmung der Kontraktionskraft / Verlängerung der RP / inhibition at 10 µM / percent prolongation of refractory period at 10 µM: concentration not given; for ERP / EKK: ratio of prolongation of RP to inhibition of contraction force; for inhibition at 100 µM / inhibition at 10 µM: Cavia porcellus, read-out: Hemmung der Kontraktionskraft
Text: Für das Screening wurde […]. Die Vorhöfe wurden durch Rechteckimpulse ( ∼ 3 msec) mit einer Basisfrequenz von 2 Hz […]. Nun wurde mittels eines Extrastimulus, dessen […] und ohne Verbindung bestimmt. […] Um zwischen Na-antagonistischen und anderen Wirkungen unterscheiden zu […] RP, die Kontraktionskraft und die Erregbarkeit des […] untersucht.

[2] = system: teilweise depolarisierten Papillarmuskel; experiment: Partially depolarised papillary muscle (extracellular potassium raised about 4-fold): mechanism of the negative inotropic effect; format: cell-based; settings: partially depolarised membranes; cause of the negative inotropic effect; result in words
Text: Weitere Untersuchungen wurden am teilweise depolarisierten Papillarmuskel durchgeführt, um zwischen der negativ inotropen Wirkung, welche auf Blockade der schnellen Na⁺-Kanälchen und einer, die auf anderen Mechanismen beruht, zu unterscheiden. Im Versuch wurde die teilweise Depolarisation der Herzmuskelzellmembran durch Erhöhung der extrazellulären Kalium-Konzentration auf das ca. 4-fache erreicht.

[3] = 10 µM according to b47, atrium stimulated at 2 Hz, mean ± spread
[4] = 100 µM, atrium stimulated at 2 Hz, mean ± spread, read-out: Verlängerung der RP
[5] = 100 µM, atrium stimulated at 2 Hz, mean ± spread
[6] = 10 µM according to b47, atrium stimulated at 2 Hz, mean ± spread, read-out: Verlängerung der RP

1-[3-(2-Hydroxy-3-(4-methyl)-1-piperidinyl)-propoxy)-4-methyl-2-thienyl]-3-phenyl-1-propanon-hydrochlorid [LG 84-6-11]
Hemmung der Kontraktionskraft [1, 3]: 59 ± 3,3% | Verlängerung der RP [1, 3]: 157 ± 10,0% | ERP / EKK ([1]; 10 µM according to b47): 2,7

1-[4-Methyl-3-(2-hydroxy-3-sek.butylaminopropoxy)-2-thienyl]-3-phenyl-1-propanon-chlorhydrat [LG 84-6-08]
Hemmung der Kontraktionskraft [1, 3]: 65 ± 4,0% | Verlängerung der RP [1, 3]: 129 ± 11,0% | ERP / EKK ([1]; 10 µM according to b47): 2,0

C=C[C@H]1CN2CC[C@H]1C[C@@H]2[C@@H](O)c1ccnc2ccc(OC)cc12 [Chinidin, reference compound]
activation at 100 µM [1, 4]: > 161% | inhibition at 100 µM [1, 5]: 77 ± 4%

CCC(C)(C)NCC(O)COc1c(C)csc1C(=O)CCc1ccccc1.Cl (stereo not drawn) [LG 84-6-07, 1-[3-(2-Hydroxy-3-tert.pentylaminopropoxy)-4-methyl-2-thienyl]-3-phenyl-1-propanon-hydrochlorid]
inhibition at 10 µM [1, 3]: 52 ± 4% | Verhältnis zwischen der Verlängerung der Refraktärperiode und der gleichzeitig beobachteten Kontraktionskraftsenkung ([1]; comparison among the tested antiarrhythmics, result in words): am größten | percent prolongation of refractory period at 10 µM [1, 6]: 66 ± 13% | Dosen für Verlängerung der Refraktärperiode gegenüber Senkung der Kontraktionskraft ([1]; doses for prolonging the refractory period compared with doses for lowering contraction force, result in words): mit wesentlich kleineren Dosen erzielt | ERP / EKK ([1]; 10 µM according to b47): 1,3 | Erregbarkeit des Vorhofes ([1]; result in words): Verminderung der Erregbarkeit des Vorhofes | negativ incorope Komponente [2]: nur durch den Na⁺-Antagonismus hervogerufen

Cc1csc(C(=O)CCc2ccccc2)c1OCC(O)CNCC(C)(C)C.Cl (stereo not drawn) [LG 84-6-09, 1-[3-(2-Hydroxy-3-(2,2-dimethylpropylamino)-propoxy)-4-methyl-2-thienyl]-3-phenyl-1-propanon-hydrochlorid]
inhibition at 10 µM [1, 3]: 37 ± 4.5% | percent prolongation of refractory period at 10 µM [1, 6]: 112 ± 18% | ERP / EKK ([1]; 10 µM according to b47): 3,0

CCN(CC)CC(=O)Nc1c(C)cccc1C [Lidocain, reference compound]
percent prolongation of refractory period at 100 µM [1, 4]: 63 ± 6% | inhibition at 100 µM [1, 5]: 17 ± 5% | ERP / EKK ([1]; 100 µM): 3,7
